Results reported in US20090030086A1, “ANTIMICROBIAL AGENTS” (priority 2005, published 2009).
Converted amounts (≈) assume the structure as drawn. Read-outs that look alike come from different tables or passages of the source. Blank lines part the entries; values can stand above or below the molecule they belong to.

How the values were obtained:
P. acnes NCTC 737 [1] = assay: MBC assay; type: cell-based, Propionibacterium acnes
Protocol: (§1) The Propionibacterium spp organisms were cultured and maintained on Wilkins-Chalgren Anaerobe Medium (agar and broth) at pH 6.0; cultures were incubated anaerobically at 37° C. for 72 hours.
(§2) This assay, normally carried out after an MIC assay, determines the minimum concentration of a compound that is lethal to the micro-organism being tested.
(§3) These samples were then individually sub-cultured on non-selective agar medium, under the incubation conditions described above. Following incubation they were examined visually for bacterial growth.
(§4) MIC, MBC and DDA assays, as described above, were carried out using a range of different benzoquinones and hydroquinones. Supplemented DDA assays, in the presence of salt and lipid, were also conducted.

P. acnes NCTC 737 [2] = assay: MIC assay; type: cell-based, Propionibacterium acnes
Protocol: 2. Propionibacterium spp.—the principal propionibacterial strain used in these studies was Propionibacterium acnes NCTC 737.
as §1
(§5) This is a standard international method for quantitatively assessing the antimicrobial activity of a compound in a liquid medium. The method used a 96-well microtitre plate, capable of holding about 200 μl of liquid per well. […] The culture media were as described above for the relevant test organisms.
(§6) The wells were inoculated with a liquid suspension of freshly grown micro-organism and incubated under the conditions described above. After incubation, the microtitre plate was examined visually (with the aid of a light box) for cloudiness in each well, which would indicate microbial growth. The MIC value was recorded as the lowest concentration of test compound required to inhibit microbial growth, i.e., the lowest concentration for which the liquid in the well remained clear.
(§7) The assays were conducted in duplicate and included both negative (culture medium only) and positive (culture medium, diluting solvent and inoculum) controls.
as §4

P. acnes NCTC 737 [3] = assay: Disc diffusion assay (DDA); type: cell-based, Propionibacterium acnes; conditions: for zone of inhibition at 200 µg/disc: Cutibacterium acnes
Protocol: as §1
(§8) A sterile paper disc was impregnated with a sample of the test compound and a minimum of 30 minutes allowed for the solvents to evaporate as far as possible. The disc was then placed on an agar plate onto which the test micro-organism had been inoculated. The plate was then incubated under the conditions described above, following which it was examined visually for signs of bacterial growth. […] The diameter of this zone of “inhibition” was measured using a ProtoCOL™ automated zone sizer (Synbiosis, Cambridge, UK).
(§9) The area of the zone of inhibition was calculated from the measured zone diameter (D) using the formula π(D/2)^2.
(§10) For most DDA assays, 200 μg of each compound was loaded onto each disc.

S. aureus ATCC 29213 [4] = assay: Disc diffusion assay (DDA); type: cell-based, Staphylococcus aureus; conditions: for zone of inhibition at 200 µg/disc: Staphylococcus aureus
Protocol: (§11) The staphylococci and enterococci were cultured and maintained on Mueller-Hinton Medium (agar and broth) at pH 7.2; they were incubated aerobically at 37° C. for 24 hours.
as §8, §9, §10

S. aureus ATCC 29213 [5] = assay: MBC assay; type: cell-based, Staphylococcus aureus
Protocol: as §11, §2, §3
(§12) The following experiments all used S. aureus ATCC 29213 as the test organism. MIC, MBC and DDA assays, as described above, were carried out using a range of different benzoquinones and hydroquinones. Supplemented DDA assays, in the presence of salt, lipid and blood, were also conducted.

P. acnes NCTC 737 [6] = assay: Supplemented disc diffusion assay; type: cell-based, Propionibacterium acnes; conditions: for zone of inhibition at 200 µg/disc: Cutibacterium acnes, NCTC737, 72 h; for effect of lipid on antimicrobial activity: activity increases in the presence of lipid
Protocol: as §1, §8
(§13) Performance under these conditions can provide a more reliable indication of activity on topical application. For assays conducted using S. aureus strains, the supplements were defibrinated horse blood (5% v/v), lipid (Tween™ 80 at 1% v/v) and sodium chloride (100 mM). For those using Propionibacterium spp. strains, the supplements were lipid (Tween™ 80 at 1% v/v) and sodium chloride (100 mM).
as §4, §10

S. aureus ATCC 29213 [7] = assay: Supplemented disc diffusion assay; type: cell-based, Staphylococcus aureus; conditions: for zone of inhibition at 200 µg/disc: Staphylococcus aureus, ATCC29213, 24 h
Protocol: as §11, §8, §13, §12, §10

S. aureus ATCC 29213 [8] = assay: MIC assay; type: cell-based, Staphylococcus aureus
Protocol: 1. Staphylococcus aureus—the principal staphylococcal test micro-organism used in these studies was Staphylococcus aureus ATCC 29213. This strain is the one recommended for QC/QA purposes in Minimum Inhibitory Concentration (MIC) assays by the US Clinical and Laboratory Standards Institute (formerly the NCCLS), an FDA-recognised body.
as §11, §5, §6, §7, §12

[9] = P. acnes NCTC 737, Wilkins-Chalgren broth pH 6.0, anaerobic, 37° C., 72 hours
[10] = P. acnes NCTC 737, unsupplemented agar, 200 μg per disc (2,6-dimethoxy-p-benzoquinone 100 μg)
[11] = S. aureus ATCC 29213, unsupplemented agar, 200 μg per disc (thymoquinone 50 μg, 2,6-dimethoxy-p-benzoquinone 100 μg)
[12] = ATCC29213, S. aureus ATCC 29213, unsupplemented agar, 200 μg per disc (thymoquinone 50 μg, 2,6-dimethoxy-p-benzoquinone 100 μg), read-out: DDA (diameter of zone of inhibition)
[13] = S. aureus ATCC 29213, Tween 80 at 1% v/v, 200 μg per disc (thymoquinone 50 μg, 2,6-dimethoxy-p-benzoquinone 100 μg), read-out: DDA + lipid
[14] = S. aureus ATCC 29213, defibrinated horse blood 5% v/v, 200 μg per disc (thymoquinone 50 μg, 2,6-dimethoxy-p-benzoquinone 100 μg), read-out: DDA + blood
[15] = S. aureus ATCC 29213, sodium chloride 100 mM, 200 μg per disc (thymoquinone 50 μg, 2,6-dimethoxy-p-benzoquinone 100 μg), read-out: DDA + salt
[16] = Staphylococcus aureus, ATCC29213, read-out: MBC
[17] = Staphylococcus aureus, ATCC29213, S. aureus ATCC 29213, Mueller-Hinton broth pH 7.2, aerobic, 37° C., 24 hours, read-out: MIC
[18] = S. aureus ATCC 29213, Tween 80 at 1% v/v, 200 μg per disc (thymoquinone 50 μg, 2,6-dimethoxy-p-benzoquinone 100 μg)
[19] = S. aureus ATCC 29213, defibrinated horse blood 5% v/v, 200 μg per disc (thymoquinone 50 μg, 2,6-dimethoxy-p-benzoquinone 100 μg)
[20] = S. aureus ATCC 29213, sodium chloride 100 mM, 200 μg per disc (thymoquinone 50 μg, 2,6-dimethoxy-p-benzoquinone 100 μg)
[21] = S. aureus ATCC 29213, Mueller-Hinton broth pH 7.2, aerobic, 37° C., 24 hours

MIC/MBC ratio (P. acnes NCTC 737 [1]; P. acnes NCTC 737): 0.5
MIC (P. acnes NCTC 737 [2]; [9]): 62.5 mg/L (≈ 503 µM)
MIC/MBC ratio (S. aureus ATCC 29213 [5]): 1
Structure (SMILES): Cc1cc(O)ccc1O [2-methyl-p-hydroquinone]
MBC (P. acnes NCTC 737 [1]; P. acnes NCTC 737): 125 mg/L (≈ 1010 µM)
DDA (diameter of zone of inhibition) (P. acnes NCTC 737 [3]; [10]): 0.0 mm
DDA (diameter of zone of inhibition) (S. aureus ATCC 29213 [4]; [11]): 25.70 mm
DDA + lipid (P. acnes NCTC 737 [6]; P. acnes NCTC 737, Tween 80 at 1% v/v, 200 μg per disc (2,6-dimethoxy-p-benzoquinone 100 μg)): 13.07 mm
DDA + salt (P. acnes NCTC 737 [6]; P. acnes NCTC 737, sodium chloride 100 mM, 200 μg per disc (2,6-dimethoxy-p-benzoquinone 100 μg)): 0.0 mm

MIC/MBC ratio (S. aureus ATCC 29213 [5]): 1
MIC (S. aureus ATCC 29213 [8]; [17]): 31.2 mg/L (≈ 252 µM)
Structure (SMILES): Cc1ccc(O)c(O)c1 [4-methylcatechol]
zone of inhibition at 200 µg/disc (S. aureus ATCC 29213 [4]; [12]): 18.3 mm
zone of inhibition at 200 µg/disc (S. aureus ATCC 29213 [7]; [13]): 20 mm
zone of inhibition at 200 µg/disc (S. aureus ATCC 29213 [7]; [14]): 0 mm
zone of inhibition at 200 µg/disc (S. aureus ATCC 29213 [7]; [15]): 20.9 mm
MBC (S. aureus ATCC 29213 [5]; [16]): 31.2 mg/L (≈ 252 µM)

Structure (SMILES): O=C1C(F)=C(F)C(=O)C(F)=C1F [tetrafluoro-p-benzoquinone]
MBC (P. acnes NCTC 737 [1]; Cutibacterium acnes, NCTC737): 250 mg/L (≈ 1390 µM)
MIC/MBC ratio (P. acnes NCTC 737 [1]; P. acnes NCTC 737): 0.5
activity against P. acnes NCTC 737 (in words) (P. acnes NCTC 737 [2]): strongly so
MIC (P. acnes NCTC 737 [2]; Cutibacterium acnes, NCTC737, 72 h, pH 6): 125 mg/L (≈ 694 µM)
zone of inhibition at 200 µg/disc (P. acnes NCTC 737 [3]; NCTC737, read-out: DDA (diameter of zone of inhibition)): 25.9 mm
zone of inhibition at 200 µg/disc (P. acnes NCTC 737 [6]; read-out: DDA + lipid): 30.8 mm
zone of inhibition at 200 µg/disc (P. acnes NCTC 737 [6]; read-out: DDA + salt): 32.4 mm
effect of lipid on antimicrobial activity (P. acnes NCTC 737 [6]; P. acnes NCTC 737): potentiated

Structure (SMILES): CC1=C(C)C(=O)C(C)=C(C)C1=O [duroquinone, 2,3,5,6-tetramethyl-p-benzoquinone]
zone of inhibition at 200 µg/disc (S. aureus ATCC 29213 [4]; ATCC29213, read-out: DDA (diameter of zone of inhibition)): 13.3 mm
zone of inhibition at 200 µg/disc (S. aureus ATCC 29213 [7]; read-out: DDA + blood): 0 mm
zone of inhibition at 200 µg/disc (S. aureus ATCC 29213 [7]; read-out: DDA + lipid): 16.2 mm
zone of inhibition at 200 µg/disc (S. aureus ATCC 29213 [7]; read-out: DDA + salt): 16.5 mm
MIC/MBC ratio (S. aureus ATCC 29213 [5]): 0.5
MBC (S. aureus ATCC 29213 [5]; Staphylococcus aureus, ATCC29213): 62.5 mg/L (≈ 381 µM)
MIC (S. aureus ATCC 29213 [8]; Staphylococcus aureus, ATCC29213, 24 h, pH 7.2): 31.2 mg/L (≈ 190 µM)

MIC/MBC ratio (S. aureus ATCC 29213 [5]): 0.25
MIC (S. aureus ATCC 29213 [8]; [21]): 7.8 mg/L (≈ 51.3 µM)
Structure (SMILES): Cc1cc(O)c(C)c(C)c1O [2,5,6-trimethyl-p-hydroquinone]
DDA (diameter of zone of inhibition) (S. aureus ATCC 29213 [4]; [11]): 63.40 mm
DDA + lipid (S. aureus ATCC 29213 [7]; [18]): 56.97 mm
DDA + blood (S. aureus ATCC 29213 [7]; [19]): 0.0 mm
DDA + salt (S. aureus ATCC 29213 [7]; [20]): 61.63 mm
MBC (S. aureus ATCC 29213 [5]): 31.25 mg/L (≈ 205 µM)

MIC/MBC ratio (P. acnes NCTC 737 [1]; P. acnes NCTC 737): 0.5
MIC (P. acnes NCTC 737 [2]; [9]): 7.8 mg/L (≈ 56.5 µM)
MIC/MBC ratio (S. aureus ATCC 29213 [5]): 1
MIC (S. aureus ATCC 29213 [8]; [21]): 7.8 mg/L (≈ 56.5 µM)
Structure (SMILES): Cc1c(O)ccc(O)c1C [2,3-dimethyl-p-hydroquinone]
DDA (diameter of zone of inhibition) (P. acnes NCTC 737 [3]; [10]): 18.75 mm
DDA (diameter of zone of inhibition) (S. aureus ATCC 29213 [4]; [11]): 33.41 mm
MBC (S. aureus ATCC 29213 [5]): 7.8 mg/L (≈ 56.5 µM)

Structure (SMILES): O=C1C=CC(=O)C=C1 [p-benzoquinone]
zone of inhibition at 200 µg/disc (P. acnes NCTC 737 [3]; NCTC737, P. acnes NCTC 737, unsupplemented agar, 200 μg per disc (2,6-dimethoxy-p-benzoquinone 100 μg), read-out: DDA (diameter of zone of inhibition)): 24.9 mm
zone of inhibition at 200 µg/disc (S. aureus ATCC 29213 [4]; [12]): 29.3 mm
effect of lipid on antimicrobial activity (P. acnes NCTC 737 [6]; P. acnes NCTC 737): potentiated

MIC/MBC ratio (S. aureus ATCC 29213 [5]): 1
MIC (S. aureus ATCC 29213 [8]; [17]): 62.5 mg/L (≈ 376 µM)
Structure (SMILES): CC(C)(C)c1ccc(O)c(O)c1 [4-t-butylcatechol]
zone of inhibition at 200 µg/disc (S. aureus ATCC 29213 [4]; [12]): 12 mm
zone of inhibition at 200 µg/disc (S. aureus ATCC 29213 [7]; [13]): 10.9 mm
zone of inhibition at 200 µg/disc (S. aureus ATCC 29213 [7]; [14]): 9.65 mm
zone of inhibition at 200 µg/disc (S. aureus ATCC 29213 [7]; [15]): 13.1 mm
MBC (S. aureus ATCC 29213 [5]; [16]): 62.5 mg/L (≈ 376 µM)

MIC/MBC ratio (S. aureus ATCC 29213 [5]): 1
MIC (S. aureus ATCC 29213 [8]; [21]): 15.6 mg/L (≈ 70.2 µM)
Structure (SMILES): CC(C)(C)c1cc(O)c(C(C)(C)C)cc1O [2,5-di-t-butyl-p-hydroquinone]
DDA (diameter of zone of inhibition) (S. aureus ATCC 29213 [4]; [11]): 10.06 mm
DDA + lipid (S. aureus ATCC 29213 [7]; [18]): 10.58 mm
DDA + blood (S. aureus ATCC 29213 [7]; [19]): 10.89 mm
DDA + salt (S. aureus ATCC 29213 [7]; [20]): 11.21 mm
MBC (S. aureus ATCC 29213 [5]): 15.6 mg/L (≈ 70.2 µM)
